Reference: patent US20200002665A1 (Heliae Development, LLC, priority 2016, published 2020)
Like-named read-outs stand apart in the source and are kept apart here.

Assays:
[1] = tested on: Chlorella (HS26) cells; assay: pH drift of cultures suspended in different nitrogen sources (Example 1); type: cell-based; conditions: after 24 hours, compared to a control; light, shaking 100 RPM; FIG. 10
Description: The Chlorella cultures were supplied with light, and shaking from a shaker table at 100 RPM. The pH drift of each culture was measured after 24 hours and compared to a control.

[2] = tested on: Chlorella (HS26); conditions: pH 7.0
Description: Cultures of Chlorella (HS26) were inoculated at 0.3 g/L in glass column bioreactors at a volume of 700 mL of BG-11 culture media and maintained at a temperature of 27° C. The mixotrophic cultures received aeration at a rate of 1 Liter per minute, an initial batch of 30 g glucose/L, and were supplied 270 micromoles of light using LED lights (LumiGrow, Inc., Emeryville, Calif.). In a first treatment, the culture was supplied with an initial batch of 3 g/L NaNO3 (“Nitrate” treatment), and the culture pH was controlled at a set point of 7.0 by a pH auxostat feed containing 0.75% HCl. […] Samples were taken daily to measure the cell dry weight, nitrogen concentration, and total protein.

[3] = tested on: Schizochytrium limacinum; conditions: pH 6.5
Source text: The heterotrophic cultures received aeration at a rate of 1 Liter per minute, and an initial batch of 80 g glycerol/L. In a first treatment, the culture was supplied with an initial batch of 20 g/L monosodium glutamate (“Glutamate” treatment), and the culture pH was controlled at a set point of 6.5 by a pH auxostat feed containing 1% HCl. […] Samples were taken daily to measure the cell dry weight, nitrogen concentration, and total protein. Results are show in FIGS. 30-33.

[4] = tested on: Chlorella (HS26); conditions: for total protein content: FIG. 29; for growth (cell dry weight over time): FIG. 26
Description: Cultures of Chlorella (HS26) were inoculated at 0.3 g/L in glass column bioreactors at a volume of 700 mL of BG-11 culture media and maintained at a temperature of 27° C. The mixotrophic cultures received aeration at a rate of 1 Liter per minute, an initial batch of 30 g glucose/L, and were supplied 270 micromoles of light using LED lights (LumiGrow, Inc., Emeryville, Calif.). In a first treatment, the culture was supplied with an initial batch of 3 g/L NaNO3 (“Nitrate” treatment), and the culture pH was controlled at a set point of 7.0 by a pH auxostat feed containing 0.50% HCl. In a second treatment, the culture was supplied with an initial batch of 3 g/L NaNO3 (“Nitrates” treatment), and the culture pH was controlled at a set point of 8.0 by a pH auxostat feed containing 0.50% HCl. […] Samples were taken daily to measure the cell dry weight, nitrogen concentration, and total protein.

[5] = tested on: Chlorella (HS26); conditions: for final day (day 4) cell dry weight: FIG. 16
Description: Cultures of Chlorella (HS26) were inoculated at 0.3 g/L in glass column bioreactors at a volume of 700 mL of BG-11 culture media and maintained at a temperature of 27° C. The mixotrophic cultures received an initial batch of 1 g/L NH4Cl, aeration at a rate of 1 Liter per minute, an initial batch of 40 g glucose/L, and were supplied 270 micromoles of light using LED lights (LumiGrow, Inc., Emeryville, Calif.). Treatments were conducted at culture medium pH values of 6.5, 7.0, 7.3, 7.5, 7.8, 8.0, and 8.5. The culture medium pH was controlled with a pH auxostat supplying a titrate of 0.5% NH4OH and 0.75% HCl at the designated set points. Samples were taken daily to measure the cell dry weight, nitrogen concentration, and total protein. Results are show in FIGS. 13-17.

[6] = tested on: Chlorella cultures; conditions: 1 g N/L of NH4; mixotrophic, acetic acid as organic carbon source; FIG. 11
Source text: The Chlorella cultures productivity using either ammonium (NH4) or nitrates (NO3) as the nitrogen source in mixotrophic culture conditions (i.e., supply of light, supply of acetic acid as the organic carbon source) were then compared. The cultures received NH4 at a concentration of 0.13 g N/L, 0.25 g N/L, 0.5 g N/L, or 1 g N/L for the ammonium treatments. The cultures received NO3 at a concentration of 0.25 g N/L or 1 g N/L for the nitrate treatments. Samples were taken to measure cell dry weight at 0, 39, 86, and 161.5 hours.

[7] = tested on: Chlorella (HS26)
Description: Cultures of Chlorella (HS26) were inoculated at 0.3 g/L in glass column bioreactors at a volume of 700 mL of BG-11 culture media and maintained at a temperature of 27° C. The mixotrophic cultures received aeration at a rate of 1 Liter per minute, an initial batch of 30 g glucose/L, and were supplied 270 micromoles of light using LED lights (LumiGrow, Inc., Emeryville, Calif.). In a first treatment, the culture was supplied with an initial batch of 3 g/L NaNO3 (“Nitrate” treatment), and the culture pH was controlled at a set point of 6.5 by a pH auxostat feed containing 0.50% HCl. In a second treatment, the culture was supplied with an initial batch of 3 g/L NaNO3 (“Nitrates” treatment), and the culture pH was controlled at a set point of 7.5 by a pH auxostat feed containing 0.50% HCl. […] Samples were taken daily to measure the cell dry weight, nitrogen concentration, and total protein.

Row | SMILES | pH drift of culture [1] | growth (cell dry weight over time) ([2]; 1.0 g/L NH4Cl, 0.5% NH4OH feed, versus Nitrate treatment, FIG. 18) | increase in protein ([2]; compared to the Nitrate treatment, FIG. 21) | growth (cell dry weight over time) ([3]; 1.0 g/L NH4Cl, 10% NH4OH feed, heterotrophic, glycerol, FIG. 30) | increase in protein yield ([3]; over the Glutamate treatment, FIG. 33) | total protein content ([4]; Ammonia culture grown at the higher pH (8.0)) | growth (cell dry weight over time) ([4]; Ammonia pH 7.0 treatment) | growth (cell dry weight over time) ([4]; Ammonia pH 8.0 treatment) | total protein content ([4]; Ammonia treatments pH 7.0 and 8.0 versus Nitrate treatments) | total protein on the final day (day 4) ([5]; culture pH 6.5 to 8.5, particularly above 7.5, FIG. 17) | accumulated protein (total protein content) ([5]; culture pH above 7.5, FIG. 15) | final day (day 4) cell dry weight ([5]; culture pH above 7.5) | growth (cell dry weight over time) ([5]; culture pH above 7.5, initial 1 g/L NH4Cl, 0.5% NH4OH titrant, FIG. 13) | final day (day 4) cell dry weight ([5]; culture pH of 7.5 and below) | growth and productivity (cell dry weight) [6] | growth (cell dry weight over time) ([7]; Ammonia pH 6.5 treatment, among Ammonia and Nitrate treatments at pH 6.5 and 7.5, FIG. 22) | total protein content ([7]; Ammonia treatments pH 6.5 and 7.5 versus Nitrate treatments, FIG. 25)
1 | O=[N+]([O-])[O-].[Na+] [sodium nitrate, reference compound] | increased in culture pH | – | – | – | – | – | – | – | – | – | – | – | – | – | – | – | –
2 | N [Ammonia, ammonia] | – | better growth than the Nitrate treatment | 15% | higher resulting growth than the Glutamate treatment | 20% | highest resulting protein | highest resulting growth | impaired growth | more total protein than the Nitrate treatments | increased as the culture pH increased | increase in accumulated protein | decreased as the culture pH increased | impaired growth | substantially similar | suffered | greatest amount of growth | more protein than the Nitrate treatments
3 | N.N.O=S(=O)(O)O [ammonium sulfate] | decreased in culture pH | – | – | – | – | – | – | – | – | – | – | – | – | – | – | – | –
